Source: paper PMC9421656, “Beyond Retigabine: Design, Synthesis, and Pharmacological Characterization of a Potent and Chemically Stable Neuronal Kv7 Channel Activator with Anticonvulsant Activity” (Journal of Medicinal Chemistry, 2022)
Where “and” joins values, the source holds several entries; their conditions need not be identical. Identical values can stand only once. One block for each molecule: values may come before it.

Key:
Kv7.2/Kv7.3 channels = Kv7.2/Kv7.3 channels (Homo sapiens, UniProt O43525+O43526); assay: FluxOR thallium-sensitive fluorescence-based assay in CHO cells stably expressing Kv7.2 + Kv7.3; assay type: cell-based; set-up: expressed in transfected cells; conditions: 10 μM; for Kv7 opening activity (in words): compared with retigabine or the reference compound of the subseries; for Slope of the fluorescent signal at 10 μM: initial slope of FluxOR signal between 5 and 15 s, mean ± SEM
Protocol: While assay robustness in Kv7.2/Kv7.3-expressing cells was high (Z′ factor > 0.5),[27] the Z′ factor calculated in CHO cells expressing Kv7.2 subunits alone was <0.5; thus, all subsequent pharmacological screens were performed in Kv7.2/Kv7.3-expressing cells. […] The Kv7.2/Kv7.3-stable cell line was generated using a plasmid-based PiggyBac transposon system that enables genomic integration of multiple independent transposons containing distinct cDNA sequences. cDNAs for KCNQ2 and KCNQ3 genes (encoding for Kv7.2 and Kv7.3, respectively) were cloned into two different PiggyBac expression vectors (pB-CMV-MCS-EF1α-RedPuro, System Biosciences), and these two plasmids, together with a plasmid encoding for the transposase (System Biosciences), were transfected into CHO cells using Lipofectamine 2000 (Invitrogen) as indicated in the protocol provided by the seller company.
The selected clone stably expressing Kv7.2/Kv7.3 channels was grown in DMEM supplemented with 10% FBS, 50 U/mL Pen-Strep, 2 mM L-glutamine (all purchased from Gibco), and 4 μg/mL puromycin (Sigma) in a humidified atmosphere at 37 °C with 5% CO2. […] A kinetic dispense microplate reader (FLUOstar Optima) was used to read the plate, setting the excitation filter at 485 nm and the emission filter at 520 nm; “Stimulus buffer” prepared as indicated in the protocol was automatically added to wells after 5 s of recording; the plate was read every 1 s, for 50 s. The results were analyzed using Optima Data Analysis and Microsoft Excel.
Only experiments resulting in a Z′ > 0.5 were considered. Data shown (Figures 1D,E,F,G and 3B) were obtained from at least three independent experiments.
Data were analyzed using the GraphPad Prism 8.0.2 (GraphPad Software, LaJolla, CA). Statistically significant differences in the initial slope of the curves were evaluated through ordinary one-way ANOVA, and multiple comparisons were corrected with the Tukey test. […] Indicated EC50 values are the mean of at least three independent experiments ± standard error of the mean (SEM).

[1] = Photostability under UV-visible light with HPLC analysis (degradation, dimer formation); assay type: physicochemical; conditions: for % Degradation (3h, UV): 10 μM, buffered aqueous solution pH 7.4, 3 h UV-visible light, ± SD; for Dimers Formation / Photodegradation (in words): 3 h UV-visible light; for Dimers Formation: HPLC at 550 nm; for Photodegradation (in words): compared with retigabine
Description: Two different HPLC wavelengths were utilized: (a) […] to evaluate the decreased concentration of the starting molecule; (b) 550 nm to investigate the formation of phenazine/phenazinium dimers, as previously described.[10] Unfortunately, dimer formation was detected for all tested compounds, except for 23 and 24. […]. […]. The first group consisted of N4 (−X- in Table 2) substituted analogues, in which the tertiary amine is unavailable for the formation of phenazine dimers (compounds 25–28). […]. The third group included derivatives replacing hydrogen atoms with electron-withdrawing fluorine atoms at position R2 of the benzene-1,2,4-triamine core scaffold (compounds 59, 60), a strategy likely reducing the reactivity of N2 and N4. […].
Photostability experiments were performed by dissolving compounds in DMSO and then diluting in buffered aqueous solutions at pH 7.4 to a final concentration of 10 μM. 1 cm quartz cells, filled with the abovementioned solutions, were irradiated by a UV lamp (UV Consulting TQ 150 equipped with Duran 50 sleeve and 150 W power supply unit, Peschl, Germany) at a fixed distance of 20 cm from the UV source. Control samples were maintained at 37 °C, wrapped with aluminum foil to avoid light exposure, and used to assess chemical stability of the compounds. At predetermined intervals, aliquots were withdrawn and analyzed by UHPLC in order to assess the concentration decrease of the starting materials and the presence of the dimers usually formed by retigabine.
Photostability and chemical stability experiments were carried out on a Kinetex^TM C18 150 × 2.1 mm × 2.6 μm (100 Å) column (Phenomenex, Bologna, Italy). The optimal mobile phase consisted of 0.1% TFA/H2O v/v (A) and 0.1% TFA/ACN v/v (B). Analysis was performed in gradient elution as follows: 0–13.0 min, 5–65% B; 13–14.0 min, 65–95% B; 14–15.0 min, isocratic to 95% B; 15–15.01 min, 95–5% B; then 3 min for column re-equilibration. The flow rate was 0.5 mL min^–1. The column oven temperature was set to 45 °C. The injection volume was 7 μL of sample. The following PDA parameters were applied: sampling rate, 12.5 Hz; detector time constant, 0.160 s; cell temperature, 40 °C. Data acquisition was set in the range 190–800 nm, and chromatograms were monitored at 224 nm to assess the decrease in concentration of the starting material, while a wavelength of 550 nm was used to eventually detect dimerization.

Molecule: CCCCCCC(=O)Nc1ccc(NCc2ccc(C(F)(F)F)cc2)cc1 [compound 2, N-(4-((4-(Trifluoromethyl)benzyl)amino)phenyl)heptanamide]
Kv7 opening activity (in words) (Kv7.2/Kv7.3 channels): still active although with slightly lower efficacy | Slope of the fluorescent signal at 10 μM (Kv7.2/Kv7.3 channels): 0.0326±0.0063

Molecule: CCCCCCC(=O)Nc1ccc(NCc2ccc(C(F)(F)F)cc2)cc1N [compound 13, N-(2-Amino-4-((4-(trifluoromethyl)benzyl)amino)phenyl)heptanamide]
Slope of the fluorescent signal at 10 μM (Kv7.2/Kv7.3 channels): 0.0443±0.0049 | % Degradation (3h, UV) [1]: 30.6 ± 2.2% | Dimers Formation [1]: Yes

Molecule: CCCCCCCC(=O)Nc1ccc(NCc2ccc(C(F)(F)F)cc2)cc1N [compound 14, N-(2-Amino-4-((4-(trifluoromethyl)benzyl)amino)phenyl)octanamide]
Slope of the fluorescent signal at 10 μM (Kv7.2/Kv7.3 channels): 0.0563±0.0039 | % Degradation (3h, UV) [1]: 73.2±0.4% | Dimers Formation [1]: Yes

Molecule: CCCCCCCCCC(=O)Nc1ccc(NCc2ccc(C(F)(F)F)cc2)cc1N [compound 15, N-(2-Amino-4-((4-(trifluoromethyl)benzyl)amino)phenyl)decanamide]
Kv7 opening activity (in words) (Kv7.2/Kv7.3 channels): progressive decrease in Kv7 opening ability | Slope of the fluorescent signal at 10 μM (Kv7.2/Kv7.3 channels): 0.0261±0.0030

Molecule: CC(C)(C)CC(=O)Nc1ccc(NCc2ccc(C(F)(F)F)cc2)cc1N [compound 17, N-(2-Amino-4-((4-(trifluoromethyl)benzyl)amino)phenyl)-3,3-dimethylbutanamide]
Slope of the fluorescent signal at 10 μM (Kv7.2/Kv7.3 channels): 0.0512±0.0040 | % Degradation (3h, UV) [1]: 79.8 ± 4.2% | Dimers Formation [1]: Yes

Molecule: Nc1cc(NCc2ccc(C(F)(F)F)cc2)ccc1NC(=O)C1CC1 [compound 18, N-(2-Amino-4-((4-(trifluoromethyl)benzyl)amino)phenyl)cyclopropanecarboxamide]
Slope of the fluorescent signal at 10 μM (Kv7.2/Kv7.3 channels): 0.0346±0.0078

Molecule: CC(C)(C)CC(=O)Nc1ccc(NCc2ccc(C(F)(F)F)cc2)cc1N1CCCCC1 [compound 24, 3,3-Dimethyl-N-(2-(piperidin-1-yl)-4-((4-(trifluoromethyl)benzyl)amino)phenyl)butanamide]
Kv7 opening activity (in words) (Kv7.2/Kv7.3 channels): comparable to that of the reference compound 17 | Slope of the fluorescent signal at 10 μM (Kv7.2/Kv7.3 channels): 0.0591±0.0043 | % Degradation (3h, UV) [1]: 79.8 ± 4.2% | Dimers Formation [1]: inability of compounds 23 and 24 to form dimers and No | Photodegradation (in words) [1]: enhanced degradation when compared to retigabine

Molecule: CCCCCCC(=O)Nc1ccc(N(CCC)Cc2ccc(C(F)(F)F)cc2)cc1N [compound 27, N-(2-Amino-4-(propyl(4-(trifluoromethyl)benzyl)amino)phenyl)heptanamide]
Kv7 opening activity (in words) (Kv7.2/Kv7.3 channels): did not improve activity | Slope of the fluorescent signal at 10 μM (Kv7.2/Kv7.3 channels): 0.0363±0.0052

Molecule: CCCCCCC(=O)Nc1ccc(OCc2ccc(C(F)(F)F)cc2)cc1N [compound 31, N-(2-Amino-4-((4-(trifluoromethyl)benzyl)oxy)phenyl)heptanamide]
Kv7 opening activity (in words) (Kv7.2/Kv7.3 channels): failed to activate Kv7.2/ Kv7.3 channels | Slope of the fluorescent signal at 10 μM (Kv7.2/Kv7.3 channels): 0.0057±0.0005

Molecule: CCCCCCC(=O)Nc1ccc(NCCc2ccc(F)cc2)cc1N [compound 42, N-(2-Amino-4-((4-fluorophenethyl)amino)phenyl)heptanamide]
Kv7 opening activity (in words) (Kv7.2/Kv7.3 channels): complete loss of activity | Slope of the fluorescent signal at 10 μM (Kv7.2/Kv7.3 channels): 0.0098±0.0010

Molecule: CCCCCCC(=O)Nc1ccc(NCc2ccncc2)cc1N [compound 51, N-(2-Amino-4-((pyridin-4-ylmethyl)amino)phenyl)heptanamide]
Kv7 opening activity (in words) (Kv7.2/Kv7.3 channels): complete loss of activity | Slope of the fluorescent signal at 10 μM (Kv7.2/Kv7.3 channels): 0.0063±0.0002

Molecule: CCCCCCC(=O)Nc1ccc(NCc2ccc(O)cc2)cc1N [compound 57, N-(2-Amino-4-((4-hydroxybenzyl)amino)phenyl)heptanamide]
Kv7 opening activity (in words) (Kv7.2/Kv7.3 channels): complete loss of activity | Slope of the fluorescent signal at 10 μM (Kv7.2/Kv7.3 channels): 0.0068±0.0003

Molecule: CCCCCCC(=O)Nc1ccc(NCc2ccc(C(F)(F)F)cc2)c(F)c1N [compound 59, N-(2-Amino-3-fluoro-4-((4-(trifluoromethyl)benzyl)amino)phenyl)heptanamide]
Kv7 opening activity (in words) (Kv7.2/Kv7.3 channels): similar | Slope of the fluorescent signal at 10 μM (Kv7.2/Kv7.3 channels): 0.0345±0.0026

Molecule: N-(2-Amino-4-(4-(trifluoromethyl)phenethyl)phenyl)heptanamide [compound 67]
Kv7 opening activity (in words) (Kv7.2/Kv7.3 channels): failed to activate Kv7.2/ Kv7.3 channels | Slope of the fluorescent signal at 10 μM (Kv7.2/Kv7.3 channels): 0.0087±0.0002

Second part, led by results:

Slope of the fluorescent signal at 10 μM (Kv7.2/Kv7.3 channels): 0.0084±0.0004
Molecule: CCCCCCCCCCCC(=O)Nc1ccc(NCc2ccc(C(F)(F)F)cc2)cc1N [compound 16, N-(2-Amino-4-((4-(trifluoromethyl)benzyl)amino)phenyl)dodecanamide]
Kv7 opening activity (in words) (Kv7.2/Kv7.3 channels): progressive decrease in Kv7 opening ability

Slope of the fluorescent signal at 10 μM (Kv7.2/Kv7.3 channels): 0.0452±0.0077 | % Degradation (3h, UV) [1]: 64.8 ± 0.9% | Dimers Formation [1]: Yes
Molecule: Nc1cc(NCc2ccc(C(F)(F)F)cc2)ccc1NC(=O)CCC1CCCCC1 [compound 19, N-(2-Amino-4-((4-(trifluoromethyl)benzyl)amino)phenyl)-3-cyclohexylpropanamide]

Kv7 opening activity (in words) (Kv7.2/Kv7.3 channels): complete loss of activity | Slope of the fluorescent signal at 10 μM (Kv7.2/Kv7.3 channels): 0.0062±0.0005
Molecule: COCCOCC(=O)Nc1ccc(NCc2ccc(C(F)(F)F)cc2)cc1N [compound 20, N-(2-Amino-4-((4-(trifluoromethyl)benzyl)amino)phenyl)-2-(2-methoxyethoxy)acetamide]

Slope of the fluorescent signal at 10 μM (Kv7.2/Kv7.3 channels): 0.0772±0.0036 | % Degradation (3h, UV) [1]: 97.7± 1.0%
Molecule: CC(C)(C)CC(=O)Nc1ccc(NCc2ccc(C(F)(F)F)cc2)cc1N1CCCC1 [compound 23, 3,3-Dimethyl-n-(2-(pyrrolidin-1-yl)-4-((4-(trifluoromethyl)benzyl)amino)phenyl)butanamide]
Kv7 opening activity (in words) (Kv7.2/Kv7.3 channels): comparable to that of the reference compound 17 | Dimers Formation [1]: inability of compounds 23 and 24 to form dimers and No | Photodegradation (in words) [1]: enhanced degradation when compared to retigabine

Kv7 opening activity (in words) (Kv7.2/Kv7.3 channels): markedly reduced activity | Slope of the fluorescent signal at 10 μM (Kv7.2/Kv7.3 channels): 0.0138±0.0024
Molecule: CCCCCCC(=O)Nc1ccc(N(Cc2ccc(C(F)(F)F)cc2)C(C)=O)cc1N [compound 28, N-(2-Amino-4-(N-(4-(trifluoromethyl)benzyl)acetamido)phenyl)heptanamide]

Kv7 opening activity (in words) (Kv7.2/Kv7.3 channels): complete loss of activity | Slope of the fluorescent signal at 10 μM (Kv7.2/Kv7.3 channels): 0.0071±0.0004
Molecule: CCCCCCC(=O)Nc1ccc(NCc2ccccn2)cc1N [compound 47, N-(2-Amino-4-((pyridin-2-ylmethyl)amino)phenyl)heptanamide]

Kv7 opening activity (in words) (Kv7.2/Kv7.3 channels): failed to activate Kv7.2/ Kv7.3 channels | Slope of the fluorescent signal at 10 μM (Kv7.2/Kv7.3 channels): 0.0073±0.0005
Molecule: CC(C)(C)CC(=O)Nc1ccc(CCc2ccc(C(F)(F)F)cc2)cc1N [compound 68, N-(2-Amino-4-(4-(trifluoromethyl)phenethyl)phenyl)-3,3-dimethylbutanamide]

Kv7 opening activity (in words) (Kv7.2/Kv7.3 channels): complete loss of activity | Slope of the fluorescent signal at 10 μM (Kv7.2/Kv7.3 channels): 0.0066±0.0006
Molecule: CCCCCCNC(=O)c1ccc(NCc2ccc(C(F)(F)F)cc2)cc1N [compound 71, 2-Amino-N-hexyl-4-((4-(trifluoromethyl)benzyl)amino)benzamide]
